Test results as given in ChEMBL document CHEMBL1122575, “Dependence of beta-lactamase stability on substructures within beta-lactam antibiotics” (J Med Chem, 1984).
≈ marks a conversion by molar mass, not a printed value.

Assays:
Escherichia coli [1] = experiment: cEscherichia coli with strain NIHJ (beta-Lactamase-negative (LAC-)); format: functional
[2] = Relative hydrolysis rate (RHR) was evaluated against RTEM enzyme; format: ADME
Escherichia coli [3] = experiment: Compound was evaluated for the antibacterial activity against Escherichia coli (RTEM+organism). 10E6 colony forming units are observed; format: functional
Staphylococcus aureus = experiment: Compound was evaluated for the antibacterial activity against Staphylococcus aureus with the strain beta-Lactamase-positive (LAC+)/beta-Lactamase-negative (LAC-); 2/1; format: functional
[4] = Relative Vmax was reported; format: ADME
Klebsiella aerogenes [5] = experiment: Compound was evaluated for the antibacterial activity against Klebsiella aerogenes with strain K1+ at 10e4/10e6 cfu; 6.3/>100; format: functional
Klebsiella aerogenes [6] = experiment: Compound was evaluated for the antibacterial activity against Klebsiella aerogenes with strain K1- at 10e4/10e6 cfu; <0.05/0.1; format: functional
Escherichia coli [7] = experiment: Compound was evaluated for the antibacterial activity against Escherichia coli (RTEM+organism) at 10e4/10e6 cfu; 0.1/0.2; format: functional
Escherichia coli [8] = experiment: Compound was evaluated for the antibacterial activity against Escherichia coli (RTEM-organism) at 10e4/10e6 cfu; 0.2/0.2; format: functional
Escherichia coli [9] = experiment: Compound was evaluated for the antibacterial activity against Escherichia coli (RTEM+organism) at 10e4/10e6 colony forming units; 0.8/3.1; format: functional
Escherichia coli [10] = experiment: Relative hydrolysis rate (RHR) was evaluated against Escherichia coli with the strain RTEM; format: ADME, organism-based
Escherichia coli [11] = experiment: Compound was evaluated for the antibacterial activity against Escherichia coli (RTEM+organism). 10e4/10e6 colony forming units are observed; 3.1/25; format: functional
Providencia rettgeri = experiment: Compound was evaluated for the antibacterial activity against Providencia rettgeri with the strain beta-Lactamase-negative (LAC-); format: functional
Escherichia coli [12] = experiment: Compound was evaluated for the antibacterial activity against Escherichia coli (RTEM+organism) at 10e4/10e6 colony forming units; 25/100; format: functional

Work on Cn1nnnc1SCC1=C(C(=O)O)N2C(=O)C(NC(=O)C(C(=O)O)c3ccc(O)cc3)C2SC1 (stereo not drawn) yielded an MIC (Escherichia coli [1]) of 3.13 mg/L (≈ 6.18 µM) and an RHR [2] of 0.96.
CO/N=C(\C(=O)N[C@@H]1C(=O)N2C(C(=O)O)=C(COC(C)=O)C[S@@+]([O-])C12)c1csc(N)n1 (stereo partly drawn) showed an MIC (Escherichia coli [3]) of 1.6 mg/L (≈ 3.39 µM) and an RHR [2] of 160.
In the case of COc1cccc(OC)c1C(=O)N[C@@H]1C(=O)N2C1SC(C)(C)C2C(=O)O (stereo partly drawn), the MIC (Staphylococcus aureus) is reported as 2 mg/L (≈ 5.26 µM) and the RVmax [4] is reported as 0.04.
C=C[C@@H]1[C@H](NC(=O)/C(=N/OC)c2csc(N)n2)C(=O)N1S(=O)(=O)[O-].[K+] showed an MIC (Klebsiella aerogenes [5]) of 6.3 mg/L, an MIC (Klebsiella aerogenes [6]) of under 0.05 mg/L and an MIC (Escherichia coli [7]) of 0.1 mg/L. The MIC (Escherichia coli [8]) was 0.2 mg/L.
CC(C)(O/N=C(\C(=O)N[C@H]1CN(S(=O)(=O)[O-])C1=O)c1csc(N)n1)C(=O)[O-].[K+].[K+] showed an MIC (Escherichia coli [9]) of 0.8 mg/L and an RHR [2] of 2.3.
Work on CO/N=C(\C(=O)N[C@H]1CN(S(=O)(=O)[O-])C1=O)c1csc(N)n1.[K+] yielded an RHR (Escherichia coli [10]) of 106, an MIC (Escherichia coli [11]) of 3.1 mg/L and an MIC (Providencia rettgeri) of under 0.05 mg/L. It also gave an RHR [2] of 12.
CC(C)O/N=C(\C(=O)N[C@H]1CN(S(=O)(=O)[O-])C1=O)c1csc(N)n1.[K+] showed an MIC (Escherichia coli [12]) of 25 mg/L and an RHR [2] of 7.
